Measurements from PubChem BioAssay AID270 (DTP/NCI, 2004).
Where “and” joins values, the source holds several entries; their conditions need not be identical. Equal values may be shown once. Inconclusive results are not listed.

System: BDF1 mice, s.c. Lewis lung carcinoma, T/C %
Assay: NCI In Vivo Anticancer Drug Screen. Data for tumor model Lewis Lung Carcinoma (subcutaneous) in B6D2F1 (BDF1) mice
Procedure: The antitumor activity of compounds was measured in mice bearing transplantable tumors. Survival or tumor size were measured and the results are expressed as the measurement made in the treated group (T) divided by the measurement made in the vehicle treated control group (C). The tumor model used in this assay is Lewis Lung Carcinoma (subcutaneous) in B6D2F1 (BDF1) mice

CC(=O)OCC(=O)[C@@]1(O)CC[C@H]2[C@@H]3C[C@H](C)C4=CC(=O)C=C[C@]4(C)[C@@]3(Br)[C@@H](O)C[C@@]21C
T/C (endpoint: mean tumor weight, dose: 0.56 mg/kg/injection, schedule: Q01DX011 (sc), vehicle: steriod suspending solution, higher = larger tumour): 89 % of control
T/C (endpoint: mean tumor weight, dose: 1.12 mg/kg/injection, schedule: Q01DX011 (sc), vehicle: steriod suspending solution, higher = larger tumour): 69 % of control
T/C (endpoint: mean tumor weight, dose: 4.5 mg/kg/injection, schedule: Q01DX011 (sc), vehicle: steriod suspending solution, higher = larger tumour): 57 % of control and 72 % of control
T/C (endpoint: mean tumor weight, dose: 5.3 mg/kg/injection, schedule: Q01DX011 (sc), vehicle: steriod suspending solution, higher = larger tumour): 50 % of control
T/C (endpoint: mean tumor weight, dose: 7.9 mg/kg/injection, schedule: Q01DX011 (sc), vehicle: steriod suspending solution, higher = larger tumour): 45 % of control
T/C (endpoint: mean tumor weight, dose: 9.0 mg/kg/injection, schedule: Q01DX011 (sc), vehicle: steriod suspending solution, higher = larger tumour): 52 % of control
T/C (endpoint: mean tumor weight, dose: 11.8 mg/kg/injection, schedule: Q01DX011 (sc), vehicle: steriod suspending solution, higher = larger tumour): 31 % of control
T/C (endpoint: mean tumor weight, dose: 17.7 mg/kg/injection, schedule: Q01DX011 (ip), vehicle: carboxymethylcellulose (CMC), higher = larger tumour): 44 % of control
T/C (endpoint: mean tumor weight, dose: 17.7 mg/kg/injection, schedule: Q01DX011 (sc), vehicle: steriod suspending solution, higher = larger tumour): 28 % of control and 38 % of control
T/C (endpoint: mean tumor weight, dose: 18.0 mg/kg/injection, schedule: Q01DX011 (sc), vehicle: steriod suspending solution, higher = larger tumour): 42 % of control
T/C (endpoint: mean tumor weight, dose: 26.6 mg/kg/injection, schedule: Q01DX011 (ip), vehicle: carboxymethylcellulose (CMC), higher = larger tumour): 48 % of control
T/C (endpoint: mean tumor weight, dose: 26.6 mg/kg/injection, schedule: Q01DX011 (sc), vehicle: steriod suspending solution, higher = larger tumour): 37 % of control
T/C (endpoint: mean tumor weight, dose: 27.0 mg/kg/injection, schedule: Q01DX011 (sc), vehicle: steriod suspending solution, higher = larger tumour): 37 % of control
T/C (endpoint: mean tumor weight, dose: 40.0 mg/kg/injection, schedule: Q01DX011 (ip), vehicle: carboxymethylcellulose (CMC), higher = larger tumour): 13 % of control
T/C (endpoint: mean tumor weight, dose: 40.0 mg/kg/injection, schedule: Q01DX011 (sc), vehicle: steriod suspending solution, higher = larger tumour): 32 % of control
T/C (endpoint: mean tumor weight, dose: 50.0 mg/kg/injection, schedule: Q01DX011 (ip), vehicle: carboxymethylcellulose (CMC), higher = larger tumour): 59 % of control
T/C (endpoint: mean tumor weight, dose: 60.0 mg/kg/injection, schedule: Q01DX011 (ip), vehicle: carboxymethylcellulose (CMC), higher = larger tumour): 6 % of control
T/C (endpoint: mean tumor weight, dose: 60.0 mg/kg/injection, schedule: Q01DX011 (sc), vehicle: steriod suspending solution, higher = larger tumour): 34 % of control

C[C@]12C=CC(=O)C=C1CC[C@@H]1[C@@H]2CC[C@]2(C)OC(=O)CC[C@@H]12
T/C (endpoint: mean tumor weight, dose: 12.5 mg/kg/injection, schedule: Q01DX011 (sc), vehicle: steriod suspending solution, higher = larger tumour): 75 % of control
T/C (endpoint: mean tumor weight, dose: 25.0 mg/kg/injection, schedule: Q01DX011 (sc), vehicle: steriod suspending solution, higher = larger tumour): 102 % of control
T/C (endpoint: mean tumor weight, dose: 50.0 mg/kg/injection, schedule: Q01DX011 (sc), vehicle: steriod suspending solution, higher = larger tumour): 53 % of control
T/C (endpoint: mean tumor weight, dose: 100.0 mg/kg/injection, schedule: Q01DX011 (sc), vehicle: steriod suspending solution, higher = larger tumour): 97 % of control

COC12C(COC(=O)NCCO)C3=C(C(=O)C(C)=C(N)C3=O)N1CC1NC12 (centres undefined)
T/C (endpoint: median survival time, dose: 3.13 mg/kg/injection, schedule: Q01DX009 (ip), vehicle: Klucel (hydroxypropylcellulose) (HPC), higher = longer survival): 94 % of control
T/C (endpoint: median survival time, dose: 6.25 mg/kg/injection, schedule: Q01DX009 (ip), vehicle: Klucel (hydroxypropylcellulose) (HPC), higher = longer survival): 92 % of control
T/C (endpoint: median survival time, dose: 25.0 mg/kg/injection, schedule: Q01DX009 (ip), vehicle: Klucel (hydroxypropylcellulose) (HPC), higher = longer survival): 94 % of control

CCN(CC)CC(C)Nc1ccc(C)c2sc3ccccc3c(=O)c12 (centres undefined)
T/C (endpoint: mean tumor weight, dose: 10.0 mg/kg/injection, schedule: Q01DX011 (ip), vehicle: other, higher = larger tumour): 104 % of control
T/C (endpoint: mean tumor weight, dose: 40.0 mg/kg/injection, schedule: Q01DX011 (ip), vehicle: other, higher = larger tumour): 68 % of control
T/C (endpoint: mean tumor weight, dose: 160.0 mg/kg/injection, schedule: Q01DX011 (ip), vehicle: other, higher = larger tumour): 30 % of control

CCOC(=O)CC(NC(=O)CP(=O)(OCC)OCC)C(=O)OCC (centres undefined)
T/C (endpoint: median survival time, dose: 50.0 mg/kg/injection, schedule: Q01DX004 (ip), vehicle: saline, higher = longer survival): 113 % of control
T/C (endpoint: median survival time, dose: 100.0 mg/kg/injection, schedule: Q01DX004 (ip), vehicle: saline, higher = longer survival): 116 % of control
T/C (endpoint: median survival time, dose: 200.0 mg/kg/injection, schedule: Q01DX004 (ip), vehicle: saline, higher = longer survival): 124 % of control
T/C (endpoint: median survival time, dose: 400.0 mg/kg/injection, schedule: Q01DX004 (ip), vehicle: saline, higher = longer survival): 116 % of control
T/C (endpoint: median survival time, dose: 800.0 mg/kg/injection, schedule: Q01DX004 (ip), vehicle: saline, higher = longer survival): 116 % of control
T/C (endpoint: median survival time, dose: 1600.0 mg/kg/injection, schedule: Q01DX004 (ip), vehicle: saline, higher = longer survival): 120 % of control
